Results reported in US20090081194A1, “COMPOSITIONS AND METHODS FOR REDUCING RISK OF DEVELOPMENT, OR SEVERITY, OF INAPPROPRIATE IMMUNE RESPONSE IN EYES” (priority 2007, published 2009).

Key:
TLR9 [1] = biological target: T1, TLR9 (Homo sapiens, UniProt Q9NR96); conditions: Bhattacharjee et al. 2006; Macfarlane et al. 1998; cited from earlier work
T1 sequence (Q9NR96 26-1032): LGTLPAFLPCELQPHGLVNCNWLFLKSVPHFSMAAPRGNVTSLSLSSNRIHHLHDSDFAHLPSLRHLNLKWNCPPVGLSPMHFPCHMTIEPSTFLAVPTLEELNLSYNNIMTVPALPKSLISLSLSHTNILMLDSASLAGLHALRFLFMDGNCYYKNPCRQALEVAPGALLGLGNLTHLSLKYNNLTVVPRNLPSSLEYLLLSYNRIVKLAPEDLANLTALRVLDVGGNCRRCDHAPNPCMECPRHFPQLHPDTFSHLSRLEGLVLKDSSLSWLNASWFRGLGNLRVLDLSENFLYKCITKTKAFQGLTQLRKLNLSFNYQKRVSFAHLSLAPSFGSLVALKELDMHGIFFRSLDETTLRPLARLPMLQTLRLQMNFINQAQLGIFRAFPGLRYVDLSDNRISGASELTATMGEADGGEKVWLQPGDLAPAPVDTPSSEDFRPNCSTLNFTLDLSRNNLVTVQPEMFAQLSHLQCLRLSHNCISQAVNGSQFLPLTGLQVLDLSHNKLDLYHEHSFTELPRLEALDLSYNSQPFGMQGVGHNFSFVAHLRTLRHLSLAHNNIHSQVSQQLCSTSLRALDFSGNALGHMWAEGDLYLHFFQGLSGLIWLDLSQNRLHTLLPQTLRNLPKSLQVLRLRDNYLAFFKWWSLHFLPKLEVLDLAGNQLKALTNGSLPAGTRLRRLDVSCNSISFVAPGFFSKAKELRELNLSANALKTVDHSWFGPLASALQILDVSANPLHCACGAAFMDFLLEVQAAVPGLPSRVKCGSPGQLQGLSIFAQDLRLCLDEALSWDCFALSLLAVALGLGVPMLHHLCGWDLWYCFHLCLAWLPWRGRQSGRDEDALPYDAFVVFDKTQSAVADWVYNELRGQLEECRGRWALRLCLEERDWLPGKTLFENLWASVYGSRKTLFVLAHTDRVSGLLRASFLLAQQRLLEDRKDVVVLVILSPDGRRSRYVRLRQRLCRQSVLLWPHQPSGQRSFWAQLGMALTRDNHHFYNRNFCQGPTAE

[2] = system: HCEL, a human corneal epithelial cell line; experiment: TLR ligand-induced CXCL8 (IL-8) release, HCEL cell line; assay type: cell-based; conditions: inhibitor 1 hour before, FIG. 7
Description: (§1) Three human cell lines representative of immune responsive cells of the ocular surface (HCEL, a human corneal epithelial cell line representative of cells present on the ocular surface; HL-60, a neutrophil-like cell line representative of neutrophils present in the tear layer, especially in the closed eye; and U937, a macrophage cell line representative of dendritic cells of the cornea, especially of those at the limbus) were exposed to various concentrations of compositions of the present invention containing the inhibitory ODN TTAGGG (InvivoGen, San Diego, Calif.) and vitamin D (1α,25-Dihydroxyvitamin D3, Sigma-Aldrich, St. Louis, Mo.) and control compositions containing prednisolone (1,4-Pregnadiene-11β,17α,21-triol-3,20-dione, Sigma-Aldrich, St. Louis, Mo.) for 1 hour prior to activation by the TLR ligand Pam3Cys for 6 hour, flagellin (flagellin purified from Salmonella typhimurium, InvivoGen, San Diego, Calif.) for 24 hr, or the stimulatory CpG type B ODN 2006 (Invivogen, San Diego, Calif.) for 24 hours. After incubation at 37° C., supernates were collected for ELISA assay (R&D Systems, Minneapolis, Minn.) for the pro-inflammatory cytokine CXCL8 (“IL-8”). Both the inhibitory ODN TTAGGG and vitamin D inhibited cytokine response to TLR ligand activation of each cell line in an inhibitor-specific manner. […] Inhibition of the stimulatory ODN CpGB ODN 2006 was only tested with inhibitory ODN TTAGGG on U937 cells.

TLR4 = conditions: monocytes; K. Sadeghi et al. 2006; cited from earlier work
[3] = system: HL-60, a neutrophil-like cell line; experiment: TLR ligand-induced CXCL8 (IL-8) release, HL-60 cell line; assay type: cell-based, human; conditions: inhibitor 1 hour before, FIG. 7
Description: as §1

[4] = system: U937, a macrophage cell line; experiment: TLR ligand-induced CXCL8 (IL-8) release, U937 cell line; assay type: cell-based, human; conditions: FIG. 7
Description: as §1

TLR2 = conditions: monocytes; K. Sadeghi et al. 2006; cited from earlier work
TLR9 [5] = biological target: T1, TLR9; conditions: Gursel et al. 2003; Stunz et al. 2002; cited from earlier work
U937 cells = conditions: H. Mitsuzawa et al. 2006; cited from earlier work
NF-κB = conditions: LPS-elicited; H. Mitsuzawa et al. 2006; cited from earlier work
[6] = flagellin activation 24 hr, inhibitor 1 hour before

Molecule: Nc1c2ccccc2nc2ccccc12 [9-aminoacridine]
- immunostimulatory action of CpG ODN (TLR9 [1]): block the immunostimulatory action of CpG ODN

Molecule: C=C1/C(=C\C=C2/CCC[C@]3(C)[C@@H]([C@H](C)CCCC(C)(C)O)CC[C@@H]23)C[C@@H](O)C[C@@H]1O [Vitamin D, 1α,25-Dihydroxyvitamin D3]
- CXCL8 (IL-8) cytokine response ([2]; Pam3Cys activation 6 hour): reduced the cytokine response
- expression of TLR4 (TLR4): diminishes the expression
- CXCL8 (IL-8) cytokine response ([3]; flagellin activation 24 hr): reduced the cytokine response
- CXCL8 (IL-8) cytokine response [4, 6]: reduced the cytokine response
- expression of TLR2 (TLR2): diminishes the expression

Molecule: C[C@]12C=CC(=O)C=C1CC[C@@H]1[C@@H]2[C@@H](O)C[C@@]2(C)[C@H]1CC[C@]2(O)C(=O)CO [Prednisolone, 1,4-Pregnadiene-11β,17α,21-triol-3,20-dione]
- CXCL8 (IL-8) cytokine response ([2]; Pam3Cys activation 6 hour): inhibited
- CXCL8 (IL-8) cytokine response ([2]; flagellin activation 24 hr): inhibited
- CXCL8 (IL-8) cytokine response ([3]; Pam3Cys activation 6 hour): inhibited
- CXCL8 (IL-8) cytokine response ([3]; flagellin activation 24 hr): inhibited
- CXCL8 (IL-8) cytokine response [4, 6]: inhibited

Molecule: CCN(CC)CCCC(C)Nc1c2ccc(Cl)cc2nc2ccc(OC)cc12 (stereo not drawn) [quinacrine]
- immunostimulatory action of CpG ODN (TLR9 [1]): block the immunostimulatory action of CpG ODN

Molecule: TTAGGG (listed as Homo sapiens) [ODN TTTAGGG]
- CXCL8 (IL-8) cytokine response ([2]; Pam3Cys activation 6 hour): reduced the cytokine response
- colocalization of CpG DNA with TLR9 within endosomal vesicles (TLR9 [5]): block the colocalization
- CXCL8 (IL-8) cytokine response ([3]; Pam3Cys activation 6 hour): reduced the cytokine response
- CXCL8 (IL-8) cytokine response ([4]; Pam3Cys activation 6 hour, inhibitor 1 hour before): reduced the cytokine response
- CXCL8 (IL-8) cytokine response ([4]; stimulatory CpG type B ODN 2006 activation 24 hours): reduced the cytokine response

Molecule: sTLR4: soluble form of a CD14-binding extracellular domain of TLR4
- LPS-elicited IL-8 release (U937 cells): effective in inhibiting
- NF-κB activation (NF-κB): effective in inhibiting

Molecule: Nc1ccnc2ccccc12 [4-aminoquinoline]
- immunostimulatory action of CpG ODN (TLR9 [1]): block the immunostimulatory action of CpG ODN

Molecule: CCN(CCO)CCCC(C)Nc1ccnc2cc(Cl)ccc12 (stereo not drawn) [hydroxychloroquine]
- immunostimulatory action of CpG ODN (TLR9 [1]): block the immunostimulatory action of CpG ODN

Molecule: CCN(CC)CCCC(C)Nc1ccnc2cc(Cl)ccc12 (stereo not drawn) [chloroquine]
- immunostimulatory action of CpG ODN (TLR9 [1]): block the immunostimulatory action of CpG ODN

B1: sMD-2: soluble form of MD-2 (protein, UniProt Q9Y6Y9 19-160, looked up)
Lymphocyte antigen 96: QKQYWVCNSSDASISYTYCDKMQYPISINVNPCIELKRSKGLLHIFYIPRRDLKQLYFNLYITVNTMNLPKRKEVICRGSDDDYSFCRALKGETVNTTISFSFKGIKFSKGKYKCVVEAISGSPEEMLFCLEFVILHQPNSN
- LPS-elicited IL-8 release (U937 cells): effective in inhibiting
- NF-κB activation (NF-κB): effective in inhibiting
